In US20260306579A1, “COMPOSITIONS AND METHODS FOR TREATMENT OF SEPTIC SHOCK” (PEROXITECH THERAPEUTICS, INC., priority 2023, published 2026):
“Also recorded” adds a separate entry of the source. Peptide text beside a SMILES is read from it.

Columns and labels:
[1] = test system: Prdx6; details: role: inhibitor; background statement; cited from earlier work
[2] = test system: ALI in mice; details: variety of mouse models of ALI; cited from earlier work
[3] = test system: pancreatic PLA2; details: role: inhibitor; background statement; cited from earlier work
[4] = test system: LPS-induced sepsis in pigs; assay: Adverse effects in the LPS-induced ALI model in pigs / tolerability statements; parameters: species or system Yorkshire pigs (Sus scrofa domesticus); details: pig, in vivo; listed as PIP-2
Experimental: Prior to start of the experiment, the battery of systemic, cardiovascular, and pulmonary tests was carried out. These are called baseline measurements. Pigs were infused IV (zero time) with: Group 1, liposomes alone, no LPS (control, n=2); Group 2, LPS+liposomes (ALI untreated, n=6); and Group 3, LPS+PIP-2 in liposomes (ALI treated, n=12). Technical personnel responsible for animal care were “blinded” to the treatment conditions. LPS was given as an IV infusion of 50 ug/kg body weight over the first hour of the experiment. […] Either liposomes alone (Group 2) or PIP-2 in liposomes (Group 3) was infused as a “slow” bolus at the end of the LPS infusion. Liposomes were given at 2.22 mg/kg body weight. PIP-2 was given at 20 mg/kg body weight. Based on the measured encapsulation efficiency of ~15-20%, the IV administered PIP-2 was ~3-4 mg/kg body weight in liposomes and the remainder was in aqueous solution; presumably, the encapsulated PIP-2 was internalized by cells while the unencapsulated PIP-2 remained extracellular.

[5] = discussion statement, no data shown; cited from earlier work

Row | Compound | inhibition of aiPLA2 / PLA2 activity of Prdx6 (in words) [1] | effect on lung injury in mouse ALI models (in words) [2] | inhibition of other PLA2 enzymes (in words) [3] | adverse side-effects / toxicity (in words) [4] | tissue half-life (in words) [5]
1 | SP-A: surfactant protein A (SP-A), 246 amino acids of human SP-A | bind to Prdx6 preventing aiPLA2 activity; also recorded: binds to Prdx6 and inhibits its aiPLA2 activity | – | – | – | –
2 | CCCCCCCCCCCCCCCCOCC(COCC(F)(F)F)OP(=O)(O)OC (stereo not drawn) [MJ33] | bind to Prdx6 preventing aiPLA2 activity | can significantly ameliorate lung injury; also recorded: markedly protective effect against lung injury | inhibits various PLA2 enzymes such as pancreatic PLA2 | – | –
3 | CC[C@H](C)[C@H](NC(=O)[C@H](CCC(N)=O)NC(=O)[C@H](Cc1c[nH]cn1)NC(=O)[C@H](CCCNC(=N)N)NC(=O)[C@H](Cc1ccccc1)NC(=O)[C@H](CC(=O)O)NC(=O)[C@H](Cc1c[nH]cn1)NC(=O)[C@@H](N)CC(C)C)C(=O)N[C@@H](CC(C)C)C(=O)O [SEQ ID NO: 2] (H-LHDFRHQIL-OH) | – | – | – | no evidence of adverse side-effects; also recorded: non-toxic | relatively favorable tissue half-life
